Results on 3 compounds are retold here after US4801579A, “Novel cystine compounds, their preparation and use” (Bleiberger Bergwerks Union, priority 1986, dated 1989).

Positions of bridges follow the written chain, without caps; N, C: chain ends. Residues, ends and D or L forms follow the SMILES beside them. Chains are numbered I, II in the order given.

For series [1] the following is noted: heat treatment (sterilization) of solutions; cited from earlier work.
Series [2] can be described thus: water solubility of the novel cystine compounds. It is filed as physicochemical. The method, then: (§1) 0.5 g bis-(acetylglycyl)-L,L-cystine are dissolved in 50 ml distilled water. The pH is adjusted to 6.5 by the addition of a 1N sodium hydrogen carbonate solution and then diluted with distilled water to a volume of 100 ml. Of this solution, an HPLC chromatogram is made immediately. The solution is then heated on a boiling water bath.

Series [3] can be described thus: heat sterilization stability of the novel cystine compounds. Particulars: for instance heating to 120° C. for 5 minutes. It counts as physicochemical. The method, then:
So, for instance, infusion solutions are prepared by dissolving the purified peptide and the desired amino acid in distilled water. Mineral salts and other substances may further be added to these solutions. Prior to administration, they must be isotonically adjusted. Up to now, it has not been possible to sterilize such solutions in the usual manner (5 minutes, 120° C., pH 5.5 to 7.5) without the decomposition of the cystine-containing component. The novel peptides according to the invention permit a heat treatment of the above-mentioned infusion solution without the decomposition of the cystine derivative.

The nature of series [4]: Testing of the water solubility and thermal stability of bis-(acetylglycyl)-L,L-cystine (HPLC after heating on boiling water bath). It is filed as physicochemical. Conditions: 0.5 g in 100 ml water, pH 6.5, boiling water bath, after 10, 20 and 30 minutes of heating. The method, then: as §1

As to `N[C@@H](CSSC[C@H](N)C(=O)O)C(=O)O` [L,L-cystine], the “resistance to heat treatment / thermal stability” value in series [1] is recorded as “stable against heat treatment”.

With `N[C@@H](CS)C(=O)O` [L-cysteine], the “resistance to heat treatment / thermal stability” value in series [1] is on record as “not resistant to heat treatment”.

With `CC(=O)NCC(=O)N[C@@H](CSSC[C@H](NC(=O)CNC(C)=O)C(=O)O)C(=O)O` [bis-(acetylglycyl)-L,L-cystine] (I: Ac-Gly-Cys-OH / II: Ac-Gly-Cys-OH; disulfide I:2-II:2), the solubility in water entry in series [2] is “well soluble in water”. Also, in series [3], the “stability to heat sterilization” value is given as “stable enough to be heat-sterilizable”. Besides, the “change of HPLC chromatogram after heating” value in series [4] is “does not show any essential changes”.
